Data: ChEMBL document CHEMBL1136199, “2,6,8,9-tetrasubstituted purines as new CDK1 inhibitors” (Bioorg Med Chem Lett, 2003)

Legend:
MCF7 = assay: cells; assay type: functional, cell-based; settings: Homo sapiens
Description: Cytotoxic property against MCF-7 cell line was determined

K562 = assay: cells; assay type: functional, cell-based; settings: Homo sapiens
Description: Cytotoxic property against K562 cell line was determined

Structure (SMILES) | IC50 (MCF7) | IC50 (K562)
CCC(CO)Nc1nc(NCc2ccccc2)c2nc(Cl)n(C(C)C)c2n1 (stereo not given) | 54 µM | 91 µM
CCC(CO)Nc1nc(NCc2ccccc2)c2nc(N)n(C(C)C)c2n1 (stereo not given) | 60 µM | 80 µM
CCC(CO)Nc1nc(NCc2ccccc2)c2nc(C)n(C(C)C)c2n1 (stereo not given) | 94 µM | 58 µM
CCC(CO)Nc1nc(NCc2ccccc2)c2nc(O)n(C(C)C)c2n1 (stereo not given) | – | 74 µM
CCC(CO)Nc1nc(NCc2cccc(O)c2)c2nc(Cl)n(C(C)C)c2n1 (stereo not given) | 27 µM | 27 µM
CC(C)n1cnc2c(Nc3cccc(Cl)c3)nc(NC3CCC(N)CC3)nc21 (stereo not given) | 1.1 µM | 1.4 µM
CC(C)C(CO)Nc1nc(Nc2cccc(Cl)c2)c2nc(Cl)n(C(C)C)c2n1 (stereo not given) | 45 µM | 21 µM
Cc1nc2c(Nc3cccc(Cl)c3)nc(NC3CCC(N)CC3)nc2n1C(C)C (stereo not given) | 8 µM | 3.5 µM
CCCOc1nc2c(NCc3ccccc3)nc(NC(CC)CO)nc2n1C(C)C (stereo not given) | 50 µM | 20 µM
CCC(CO)Nc1nc(NCc2ccccc2)c2nc(NCCCO)n(C(C)C)c2n1 (stereo not given) | 40 µM | 30 µM
CCC(CO)Nc1nc(NCc2ccccc2)c2nc(Br)n(C(C)C)c2n1 (stereo not given) | 53 µM | 27 µM
CCC(CO)Nc1nc(NCc2ccccc2)c2nc([N+](=O)[O-])n(C(C)C)c2n1 (stereo not given) | 117 µM | 117 µM
CCC(CO)Nc1nc(NCc2ccccc2)c2nc(S)n(C(C)C)c2n1 (stereo not given) | 55 µM | 154 µM
